Assay results taken from patent US4704389A, “Aromatic omega-alkyl-imino-tetrahydro-6H-1,3-thiazin-6-one derivatives” (Merrell Dow Pharmaceuticals Inc., priority 1987, dated 1987).
Structures can show the parent of a compound that is named as a salt.

How the values were obtained:
5-HT1A recognition sites = molecular target: T1, 5-HT1A recognition sites (Rattus norvegicus, UniProt P19327); experiment: 5-HT1A radioligand binding ([3H]-8-OH-DPAT); settings: rat frontal cortex homogenate, 37° C. 15 min, read-out: 5-HT1A Binding Affinity Rat Brain Cortex (pIC50) (converted)
T1 sequence (P19327 1-422): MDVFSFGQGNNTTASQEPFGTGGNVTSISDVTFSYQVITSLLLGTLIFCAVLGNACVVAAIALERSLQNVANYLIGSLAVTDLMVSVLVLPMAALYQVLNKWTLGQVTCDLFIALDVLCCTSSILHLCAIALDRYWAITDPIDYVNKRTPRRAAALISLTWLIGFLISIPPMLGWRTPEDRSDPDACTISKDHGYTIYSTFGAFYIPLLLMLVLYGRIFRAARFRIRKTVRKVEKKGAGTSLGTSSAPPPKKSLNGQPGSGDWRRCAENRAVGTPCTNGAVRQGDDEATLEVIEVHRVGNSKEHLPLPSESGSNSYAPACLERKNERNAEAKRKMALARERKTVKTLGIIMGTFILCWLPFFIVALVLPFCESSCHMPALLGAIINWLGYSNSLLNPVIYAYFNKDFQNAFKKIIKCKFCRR
Method: Radioligand binding studies of the 5-HT1A recognition sites are conducted in the following manner. Male normotensive Sprague-Dawley rat frontal cortex is dissected, frozen in liquid nitrogen and stored at -20° C. until needed. Tissues from 4-8 rats are pooled and homogenized in 70 vol Tris-HCl buffer (50 mM, pH 7.7), using a kinematica Polytron (setting 2/3 max speed, 20 sec). The homogenate is centrifuged (36500×g for 10 min), the pellet re-homogenised in the same volume of buffer and the process is repeated two more times. Between the second and third centrifugations the tissue homogenate is incubated at 37° C. for 10 min. The final pellet is suspended in the same volume of Tris buffer containing 10 µM pargyline, 5.7 mM CaCl2 and 0.1% ascorbic acid. This suspension is incubated for 10 min at 37° C. and then stored on ice until used in the binding assay.
Tissue homogenate (0.7 ml), radioactive ligand (0.1 ml) and the appropriate concentration of test compound (0.1 ml), together with buffer to a final volume of 1 ml are incubated at 37° C. for 15 min. Incubations are terminated by rapid filtration through Whatman GF/B filters followed by three 5 ml washes with ice-cold Tris-HCl buffer (50 mM, pH 7.0). Radioactivity is measured following extraction into Aquasol-Z (NEN) at an efficiency of 45-50%. The radioligand used to label the 5-HT1A recognition sites and its concentration is [^3 H]-8-hydroxy-2-(di-n-propylamino)-tetralin, [^3 H]-8-OH-DPAT, […].
Following essentially the above procedure, the following compounds were tested. Results are expressed as pIC50 ([…] concentration of test compound which inhibits specific binding by 50%).

[1] = test system: naive adult male Sprague-Dawley rats; experiment: Rat licking (Vogel conflict) test for anxiolytic activity; assay type: in vivo; settings: subcutaneous, 30 min before test, control 119 ± 30
Method: Following the procedure described by Vogel et al., Psychopharmacologia 21, 1-7 (1971), thirsty naive rats are periodically administered shocks in an appropriate test apparatus for licking water, thereby setting up a simple conflict procedure. In the following experiment, naive adult male Sprague-Dawley rats (approximately 170 g) are randomly divided into 5 groups and deprived of water for 48 hours prior to the test session. Food is available in the home cage at all times.
Thirty minutes following subcutaneous injection, each animal is placed in the apparatus, permitted to find the drinking tube and complete 20 licks before shock is administered. The test animal controls shock duration by withdrawing from the drinking tube. At the termination of the first shock, shocks are delivered following each twentieth lick. The number of licks, indicating the number of shocks taken during a 3 minute period is recorded for each animal, compared with placebo, and with animals treated with established anxiolytic agents. A "release" from suppressed licking response, i.e., a greater number of licks compared to controls, is predictive of anxiolytic activity.
Following essentially this same procedure, the following results are observed utilizing the compound of Example II, i.e., 2-[4-[4-(2-pyrimidinyl)-1-piperazinyl]butylimino]-tetrahydro-4,4-dimethyl- 6H-1,3-thiazin-6-one

Row | Structure (SMILES) | IC50 (5-HT1A recognition sites) [nM] | Licks taken over 3 min. period ([1]; dose 0.05 mg/kg) | Licks taken over 3 min. period ([1]; dose 0.25 mg/kg) | Licks taken over 3 min. period ([1]; dose 1.25 mg/kg) | Licks taken over 3 min. period ([1]; dose 0.75 mg/kg)
1 | CC1(C)CC(=O)SC(=NCCCCNCC2COc3ccccc3O2)N1 (stereo not shown) [Example I, 2-[4-[(2,3-dihydro-1,4-benzodioxin-2-yl)methylamino]butylimino]-tetrahydro-4,4-dimethyl-6H-1,3-thiazin-6-one oxalate] | 2.82 |  |  |  | 
2 | O=C1CC2(CCCC2)NC(=NCCCCN2CCN(c3ncccn3)CC2)S1 [Example III, 2-[4-[4-(2-Pyrimidinyl)-1-piperazinyl]-butylimino]-tetrahydro-4,4-tetramethylene-6H-1,3-thiazin-6-one] | 166 |  |  |  | 
3 | CC1(C)CC(=O)SC(=NCCCCN2CCN(c3ncccn3)CC2)N1 [Example II, 2-[4-[4-(2-Pyrimidinyl)-1-piperazinyl]butylimino]-tetrahydro4,4-dimethyl-6H-1,3-thiazin-6-one] | 47.9 | 150 ± 28 | 223 ± 34 | 220 ± 27 | 
4 | CN1C(=O)CN=C(c2ccccc2)c2cc(Cl)ccc21 [Diazepam, reference compound] |  |  |  |  | 247 ± 36
